What was measured:
RFP-ovsaho tumors = assay: In vivo imaging study, spray on about 2 mm subcutaneous RFP-ovsaho tumors (Example 1); parameters: species or system mice; details: for tumor contrast after spray: 2 μM sprayed, no washing
Protocol: In vivo imaging study. The animals inoculated with RFP-ovsaho cells in flank were used for the imaging study. To imitate the morphology of metastasized human ovarian cancer, the tumor size was controlled to 2 mm. The skin was removed prior to the spray of dye (2 μM, in saline). The tumor areas were sprayed and imaged using Cy7 filter set at different time points. RFP images were also acquired for tumor co-registration. The contrast ratio was calculated by [signal of tumor]/[signal of adjacent muscle]. Following the in vitro and cellular validation, we thought that the best candidate, CypH-11, which has excellent fluorescence property in different pH and in cells, could be an ideal agent to augment the detection of small cancerous lesions otherwise unnoticeable to surgeons. To verify the presumption, RFP positive ovsaho ovarian cancer cells were subcutaneously inoculated in mice. When tumors were about 2 mm in size, the skin was removed and the CypH-11 solution (2 μM in saline) was sprayed onto the tumor areas. […] The contrast continued to increase slightly and quickly reached plateau at ˜7 min. The tumor signal is about 150% higher than the adjacent muscle tissues, and the CypH-11 signal co-registered well with the RFP signal. […] In a separate set of experiment, animals were inoculated with two tumors. Each tumor was sprayed either with the prototype dye CypH-1 or CypH-11, and imaged simultaneously.

[1] = pKa measurement by fluorescence intensity in the pH range 2.0-11.0 (plate reader); format: physicochemical; details: for pKa: 2 μM in 20 mM phosphate-buffered solution, pH 2.0-11.0, λex=725 nm, λem=785 nm; for pH dependency of fluorescence: different pH solutions
Protocol: (A) The structure of CypH-1 (B) Schematic diagram of the fluorescence activation of CypH-11 by protonation. […] Their fluorescence intensity in the pH range (2.0-11.0) was measured (λex=725 nm and λem=785 nm) using a plate reader. (D) Fluorescence image of CypH-11 and CypH-1 in a 96-well plate at different pHs.
Spectroscopic analysis. Stock solutions (1 mM in DMSO) of CypH-11, CypH-1, and Cy7 were stored at a −30° C. freezer and used for the following experiments. For the pKa measurement, the respective compound was diluted in 20 mM phosphate-buffered solution (PBS, pH 2.0-11.0) to a final concentration of 2 μM. The fluorescence intensity (λex=725 nm and λcm=785 nm) was measured on a plate reader (Tecan Infinite M1000 Pro), and the fluorescence images were recorded with a fluorescence imaging system (Bruker In-vivo F Pro). For the quantum yield measurement, indocyanine green (ICG, Φ=1.2% in water) was used as the standard compound. The respective compound (0.4, 0.8, 1.2, 1.6, and 2.0 μM) in PBS solutions (pH=4.0 and pH=7.4) was measured using a Cary 60 UV-Vis spectrophotometer and Cary Eclipse fluorescence spectrophotometer (Agilent). The slope of fluorescence vs absorbance was compared with that of ICG to calculate the relative quantum yield.

OVASAHO cells = assay: Cell viability, cell counting kit-8 (CCK-8); format: cell-based; details: 2 μM for 1 hr, then 72 hrs in fresh medium
Protocol: Cell viability. The cell viability of CypH-11 and CypH-1 were evaluated using the cell counting kit-8 (CCK-8) from Dojindo (Rockville, MD). OVASAHO cells (5.0×10^3) were seeded on a 96-well plate and cultured for 24 hrs. Then the cells were treated with CypH-11 (2 μM) and CypH-1 (2 μM) for 1 hr. After replacing the medium with fresh cell culture medium, the cells were incubated for another 72 hrs. The cell viability was examined by treating them with CCK-8 solution for 3 hrs and reading the absorbance at 450 nm using a plate reader.

CN(C)c1ccc(OC2=C(/C=C/C3=[N+](C)c4ccccc4C3(C)C)CCC/C2=C\C=C2\N(C)c3ccccc3C2(C)C)cc1.[Cl-] [CypH-1, reference compound]
tumor contrast after spray (RFP-ovsaho tumors): minimally contrast | pKa [1]: 4.7 | pH dependency of fluorescence [1]: low fluorescence in neutral and basic solutions, but strong fluorescence in acidic solutions | cell viability (OVASAHO cells): 95.5±6.9%

CC(C)N(C)c1ccc(OC2=C(/C=C/C3=[N+](C(C)C)c4ccccc4C3(C)C)CCC/C2=C\C=C2\N(C(C)C)c3ccccc3C2(C)C)cc1.[I-] [CypH-11]
time to contrast plateau (RFP-ovsaho tumors; 2 μM in saline, sprayed): ~7 min | tumor signal higher than the adjacent muscle tissues (RFP-ovsaho tumors; 2 μM in saline, sprayed): about 150% | time to fluorescent signal highlighting the tumor after spray (RFP-ovsaho tumors; 2 μM in saline, sprayed, about 2 mm tumors): within a minute | tumor contrast after spray (RFP-ovsaho tumors): near instant signal enhancement | pKa [1]: 6 | normalized fluorescence relative to that of CypH-1 ([1]; at pH 6.0-6.5, in solution): about 3.4 fold | pH dependency of fluorescence [1]: low fluorescence in neutral and basic solutions, but strong fluorescence in acidic solutions | cell viability (OVASAHO cells): 91.0±4.6%
